Common to all, as to assay: NCI anticancer screen, dose series, 48 h
Experiment [1] has as its system SW-620 colon.
The subject of experiment [2] is SK-MEL-5 melanoma.
Experiment [3] deals with LOX IMVI melanoma.
Experiment [4] has as its system MOLT-4 leukemia.
Experiment [5] concerns UACC-257 melanoma.
The test system of experiment [6] is SF-539 CNS.
Experiment [7] deals with OVCAR-5 ovarian.
Experiment [8] deals with SK-MEL-28 melanoma.
Experiment [9] concerns U251 CNS.
Experiment [10] relates to RPMI-8226 leukemia.
For experiment [11], the system named is A549 NSCLC.
Experiment [12] concerns NCI/ADR-RES ovarian.
Experiment [13] deals with HCT-15 colon.

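Briefly, cells in 96-well plates were exposed to five compound concentrations for 48 h, and endpoints were estimated by linear interpolation. TGI is the concentration that stops growth completely.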 Some results are limits rather than exact numbers.

For the compound `CC[C@@H](/C=C\CCC1(C[C@H](O)CCC=C(C)C)OCCO1)O[Si](C(C)C)(C(C)C)C(C)C`, the TGI in [1] worked out at 73.9 µM; in [2], 37.5 µM; in experiment [3], 38.8 µM; in experiment [4] it was 45.4 µM; in experiment [5] it was 65.2 µM; in experiment [6], 34.8 µM. The TGI in [7] is 38.5 µM; in experiment [8], 73.4 µM; in experiment [9], 31.1 µM; in experiment [10], 42.7 µM; in [11], above 100 µM; in experiment [12] it was 53.9 µM. This compound also showed a TGI in experiment [13] of 42.8 µM.
For `CCC(=O)O[C@H]1CC[C@H]2[C@@H]3CCC4=C/C(=N/NC(=O)c5cccc6c(=O)c7ccccc7[nH]c56)CC[C@]4(C)[C@H]3CC[C@]12C`, the TGI in experiment [1], in experiment [2], in experiment [3], in experiment [4], in [5] and in experiment [6] was above 25 µM throughout. Besides, the TGI in experiment [7], in [8], in [9], in [10], in experiment [11] and in experiment [12] was above 25 µM each time. This compound also yielded a TGI in [13] above 25 µM.
As for `O=[N+]([O-])c1cccnc1NCC1(CO)CC(Cc2ccccc2)C1` (stereo not drawn), the TGI in [1], in [2], in experiment [3], in experiment [4], in experiment [5] and in [6] was above 100 µM in each case. The TGI in experiment [7], in experiment [8], in [9], in experiment [10], in experiment [11] and in [12] was above 100 µM each time. The same compound yielded a TGI in [13] above 100 µM.
On to `Cn1c(-c2cccs2)cc(-c2cccs2)c1-c1ccsc1`, for which the TGI in experiment [1], in experiment [2], in experiment [3], in experiment [4], in experiment [5] and in experiment [6] was above 100 µM throughout. The TGI in experiment [7], in [8], in experiment [9], in [10], in experiment [11] and in experiment [12] was above 100 µM each time. In experiment [13], the TGI was above 100 µM.
For the compound `C=C1C(=O)OC2C1CC(O)/C(C)=C\CCC1(C)OC21` (stereo not drawn), the TGI in experiment [1] was above 100 µM; in [2], 47.5 µM; in experiment [3], 78.7 µM; in [4] it was 79.3 µM; in experiment [5], above 100 µM; in experiment [6] it was above 100 µM. For the same compound, the TGI is 75 µM in experiment [7]; 91.1 µM in experiment [8]; 54.8 µM in [9]; 65.4 µM in [10]; above 100 µM in experiment [11]; 62.3 µM in [12]. Further, the TGI in experiment [13] was found to be 33.5 µM.
On to `CNC(=S)N/N=C/c1cccc(C)n1`, for which the TGI in experiment [1] was above 100 µM; in [2] it was above 74.9 µM; in experiment [3], above 73.8 µM; in experiment [4] it was above 87 µM; in [5], above 100 µM; in experiment [6] it was 39.7 µM. Also, the TGI is above 100 µM in experiment [7]; above 100 µM in experiment [8]; above 100 µM in [9]; above 100 µM in experiment [10]; above 100 µM in [11]; 63.3 µM in experiment [12]. This compound gave a TGI in [13] above 100 µM.
Turning to `Cc1cccc(NC(=S)Nc2ccccc2Cl)n1`, the TGI in experiment [1] is above 100 µM; in experiment [2] it was above 100 µM; in experiment [3] it was above 100 µM; in experiment [4], above 100 µM; in experiment [5] it was 74.2 µM; in experiment [6], above 100 µM. The TGI in [7], in experiment [8], in [9], in [10], in experiment [11] and in experiment [12] was above 100 µM in each case. Also, the TGI in [13] is above 100 µM.
In the case of `Cc1ccc2c(n1)C(=O)c1ccccc1C2=O`, the TGI was above 95.4 µM in experiment [1]; 19.7 µM in experiment [2]; 53.1 µM in [3]; above 88.7 µM in [4]; 37.9 µM in experiment [5]; above 87.1 µM in experiment [6]. Moreover, the TGI was above 56.5 µM in experiment [7]; above 100 µM in experiment [8]; 97.7 µM in [9]; above 95.8 µM in experiment [10]; 69 µM in experiment [11]; 60.1 µM in [12]. Also, the TGI in [13] came to 82.9 µM.
For the compound `CN(C)c1ccc(/C=C/C=C(/C#N)c2ccccc2)cc1`, the TGI in [1] is 72.5 µM; in [2], above 100 µM; in experiment [3] it was above 74.3 µM; in experiment [4], above 55.7 µM; in experiment [5] it was above 100 µM; in experiment [6], 64.7 µM. Also, the TGI in experiment [7] was above 100 µM; in experiment [8], above 100 µM; in experiment [9], 55.5 µM; in [10] it was above 95.3 µM; in experiment [11], above 100 µM; in experiment [12] it was 35.3 µM. Also, the TGI in experiment [13] was above 100 µM.
Turning to `O=c1[nH]nc(Cc2ccccc2)n1Nc1ccccc1`, the TGI in experiment [1], in experiment [2], in experiment [3], in experiment [4], in [5] and in experiment [6] was above 100 µM each time. In addition, the TGI in experiment [7], in experiment [8], in [9], in experiment [10], in experiment [11] and in experiment [12] was above 100 µM in each case. In addition, the TGI in experiment [13] was above 100 µM.
With `COC(=O)/N=[N+](\[O-])C(c1ccc(OC)cc1)C1CCCCC1` (stereo not drawn), the TGI is 24.3 µM in experiment [1]; above 41.4 µM in experiment [2]; above 100 µM in [3]; 31.6 µM in [4]; 25.3 µM in [5]; above 48.3 µM in experiment [6]. Also, the TGI in [7] came to 11.9 µM; in experiment [8], 38.7 µM; in experiment [9], 20.1 µM; in experiment [10], 4.55 µM; in [11], 34.9 µM; in experiment [12] it was 15.8 µM. The compound further came in with a TGI in experiment [13] of 23.5 µM.

Source of the values: PubChem BioAssay (NCI).
